Data published in patent US12084420B2, “Indoline compounds for inhibiting KIF18A” (Volastra Therapeutics, Inc., priority 2021, dated 2024).
Where two headings read alike, the source gives them in different places.

What was measured:
[1] = biological target: KIF18a-Microtubule Complex (Homo sapiens (Human), UniProt Q8NI77); experiment: Binding kinetics to KIF18a-microtubule complex (global progress curve analysis); settings: for koff (off-rate from binding kinetics assay) / kon (on-rate from binding kinetics assay): global progress curve analysis; for Ki: read-out: KI (determined from binding kinetic assay koff/kon), koff/kon; for koff: read-out: koff (off-rate from binding kinetics assay)
Sequence of KIF18a-Microtubule Complex (Q8NI77 whole entry, looked up): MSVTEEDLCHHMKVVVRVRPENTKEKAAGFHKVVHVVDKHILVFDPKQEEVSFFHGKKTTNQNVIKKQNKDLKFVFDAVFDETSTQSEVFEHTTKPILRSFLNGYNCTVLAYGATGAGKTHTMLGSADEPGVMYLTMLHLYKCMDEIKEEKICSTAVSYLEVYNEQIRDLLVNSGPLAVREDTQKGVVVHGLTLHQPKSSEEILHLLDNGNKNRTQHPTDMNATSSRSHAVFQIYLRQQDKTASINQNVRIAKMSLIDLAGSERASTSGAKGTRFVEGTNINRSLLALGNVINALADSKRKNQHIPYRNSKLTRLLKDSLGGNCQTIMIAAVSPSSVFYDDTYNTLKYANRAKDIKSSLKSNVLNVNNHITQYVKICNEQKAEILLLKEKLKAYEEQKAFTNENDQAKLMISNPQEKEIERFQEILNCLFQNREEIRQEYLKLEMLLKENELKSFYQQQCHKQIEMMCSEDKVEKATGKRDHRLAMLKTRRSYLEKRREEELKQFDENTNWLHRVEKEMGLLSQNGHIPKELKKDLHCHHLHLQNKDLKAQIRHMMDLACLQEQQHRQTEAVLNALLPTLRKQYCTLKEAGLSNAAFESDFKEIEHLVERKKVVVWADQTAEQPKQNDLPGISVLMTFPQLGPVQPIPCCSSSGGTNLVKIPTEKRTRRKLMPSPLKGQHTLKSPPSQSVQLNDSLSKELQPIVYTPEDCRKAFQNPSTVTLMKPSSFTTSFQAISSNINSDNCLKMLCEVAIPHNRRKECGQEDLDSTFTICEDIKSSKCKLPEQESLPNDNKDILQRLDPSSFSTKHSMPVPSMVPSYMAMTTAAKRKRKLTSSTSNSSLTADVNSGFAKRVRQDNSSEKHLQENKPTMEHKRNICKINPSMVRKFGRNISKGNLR
Sequence of KIF18a-Microtubule Complex (Q2XVP4 whole entry partner, looked up): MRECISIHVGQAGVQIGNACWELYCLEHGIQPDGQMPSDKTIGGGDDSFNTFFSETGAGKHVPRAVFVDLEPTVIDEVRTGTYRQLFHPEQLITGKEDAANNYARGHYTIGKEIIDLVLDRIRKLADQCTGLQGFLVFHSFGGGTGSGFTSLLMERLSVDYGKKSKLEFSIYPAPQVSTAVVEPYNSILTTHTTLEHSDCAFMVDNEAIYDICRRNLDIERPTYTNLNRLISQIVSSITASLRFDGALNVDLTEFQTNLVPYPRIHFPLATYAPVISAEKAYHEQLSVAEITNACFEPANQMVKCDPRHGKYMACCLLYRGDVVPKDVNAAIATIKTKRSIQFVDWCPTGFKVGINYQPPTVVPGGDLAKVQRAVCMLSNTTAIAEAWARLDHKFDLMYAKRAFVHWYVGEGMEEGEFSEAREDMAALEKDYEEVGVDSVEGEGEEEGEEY
Sequence of KIF18a-Microtubule Complex (P02554 whole entry partner, looked up): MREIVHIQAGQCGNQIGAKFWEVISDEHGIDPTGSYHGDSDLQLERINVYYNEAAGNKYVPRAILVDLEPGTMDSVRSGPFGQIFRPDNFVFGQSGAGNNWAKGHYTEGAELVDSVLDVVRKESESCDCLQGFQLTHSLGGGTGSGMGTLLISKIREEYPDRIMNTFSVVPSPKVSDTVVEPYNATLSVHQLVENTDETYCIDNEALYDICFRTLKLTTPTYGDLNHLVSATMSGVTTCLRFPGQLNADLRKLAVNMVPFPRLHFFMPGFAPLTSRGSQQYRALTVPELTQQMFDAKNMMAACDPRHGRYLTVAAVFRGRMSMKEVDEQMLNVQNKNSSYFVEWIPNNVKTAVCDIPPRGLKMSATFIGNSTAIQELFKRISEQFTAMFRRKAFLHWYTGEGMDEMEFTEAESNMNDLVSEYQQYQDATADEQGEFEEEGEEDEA
Protocol: Binding Kinetics to KIF18a-Microtubule Complex
Compound binding kinetics parameters (kon and koff) were determined by the method of global progress curve analysis (GPCA). […] ADP product levels were determined by the Promega® ADP-Glo assay. The time/dose-dependent progress curves were then globally fit to a Michaelis-Menten kinetics model with 1-step slow binding inhibition to derive both on-rate kon and off-rate koff values (Zhang, R., Wong, K. (2017): “High performance enzyme kinetics of turnover, activation and inhibition for translational drug discovery”, Expert Opinion on Drug Discovery, 2017 January; 12(1):17-37. doi: 10.1080/17460441.2017.1245721).

hKIF18A (1-374) = hKIF18A (1-374) (Homo sapiens (Human), UniProt Q8NI77); experiment: Inhibition of KIF18A microtubule-dependent ATPase activity (ADP-Glo); settings: KIF18A microtubule-dependent ATPase activity, biochemical assay
Sequence of hKIF18A (1-374) (Q8NI77 whole entry, looked up): as the sequence (Q8NI77 whole entry, looked up) above
Sequence of hKIF18A (1-374) (Q2XVP4 whole entry partner, looked up): as the sequence (Q2XVP4 whole entry partner, looked up) above
Sequence of hKIF18A (1-374) (P02554 whole entry partner, looked up): as the sequence (P02554 whole entry partner, looked up) above

HCC15 cells = experiment: Cell viability of KIF18a-sensitive cell lines, HCC15 (Cell Titre-Glo, 7 days); format: cell-based; settings: HCC15, 168 h, read-out: HCC-15 IC50
Protocol: Cell Viability of KIF18a-Sensitive Cell Lines
Cell lines were seeded as follows 24 hours before compound treatment: HCC15 (Korean Cell Line Bank) 600 cell/well, 95 μL of RPMI-1640 media supplemented with 100 units/mL penicillin, 100 units/mL streptomycin and 10% FBS; NIH:OVCAR-3 (ATCC), 1000 cell/well, 95 μL of RPMI-1640 media supplemented with 100 units/mL penicillin, 100 units/mL streptomycin, 0.01 mg/mL bovine insulin, and 20% FBS; JIMT-1 (Addexbio) 1000 cell/well, 95 μL of DMEM media supplemented with 100 units/mL penicillin, 100 units/mL streptomycin, and 10% FBS.
Test compounds were added to cells in a 20× dilution scheme by adding 5 μL of serially diluted compound to the plate, and the treated cells were incubated for an additional 7 days in a 37° C., 5% CO2 incubator. DMSO was used as the negative control (0% effect), and wells omitting cells were used as the positive control (100% effect). The cells were incubated for seven days, and cell viability determined via the Promega Cell Titre-Glo® Assay kit. Luminescence units were converted to ATP concentrations via an ATP standard curve (10 point, 2-fold dilution from 5 uM). % Inhibition was calculated for each well as: ([max−min]−[test−min])/[max−min]. IC50 values were calculated from concentration vs. % Inhibition data via a four-parameter variable slope model.

[2] = HCC-15 cells, 7 days, Cell Titre-Glo

| kon (on-rate from binding kinetics assay) [1] [M⁻¹ s⁻¹] | disc. t1/2 (dissociation half-life ln(2)/koff) [1] [h] | Ki [1] [nM] | IC50 (hKIF18A (1-374)) [nM] | koff [1] [s⁻¹] | IC50 (HCC15 cells; [2]) [nM] | SMILES | koff (off-rate from binding kinetics assay) [1] [s⁻¹] | IC50 (HCC15 cells) [nM] |
| --- | --- | --- | --- | --- | --- | --- | --- | --- |
| 19700 | 26 | 0.38 | 8.4 | 7.5e-06 | – | CC(C)(C)NS(=O)(=O)c1cc(C(=O)N2CC3(CCC4(CC4)CC3)c3cc(NS(C)(=O)=O)ccc32)ccc1O [Compound 298, N-(tert-butyl)-2-hydroxy-5-(5″-(methylsulfonamido)dispiro[cyclopropane-1,1′-cyclohexane-4′,3″-indoline]-1″-carbonyl)benzenesulfonamide] | – | – |
| 12200 | 2.5 | 6.3 | 45 | 7.78e-05 | – | CS(=O)(=O)Nc1ccc2c(c1)C1(CCCCC1)CN2C(=O)c1cccc(S(=O)(=O)N2CC3(CCC3)C2)c1 [Compound 129, N-(1′-(3-((2-azaspiro[3.3]heptan-2-yl)sulfonyl)benzoyl)spiro[cyclohexane-1,3′-indolin]-5′-yL)methanesulfonamide] | – | – |
| 8890 | 6.7 | 0.31 | 5.9 | 2.86e-05 | – | CC(C)(C)NS(=O)(=O)c1cc(C(=O)N2CC3(CCC4(CC4)CC3)c3cc(NS(C)(=O)=O)ccc32)cs1 [Compound 262, N-(tert-butyl)-4-(5″- (methylsulfonamido)dispiro[cyclopropane-1,1′-cyclohexane-4′,3″-indoline]-1″-carbonyl)thiophene-2-sulfonamide] | – | – |
| – | – | – | 67 | – | 69 | CC(C)(C)NS(=O)(=O)c1cccc(C(=O)N2CC3(CCCCC3)c3cc(NS(C)(=O)=O)ccc32)c1 [Compound 26, N-(tert-butyl)-3-(5′-(methylsulfonamido)spiro[cyclohexane-1,3′-indoline]-1′-carbonyl)benzenesulfonamide] | – | – |
| 16700 | 8.1 | 1.4 | 9.3 | 2.39e-05 | – | CS(=O)(=O)Nc1ccc2c(c1)C1(CCC3(CC3)CC1)CN2C(=O)c1cccc(S(=O)(=O)N2CC[C@@H](F)C2)c1 [(R)-Compound 239, (R)-N-(1″-(3-((3-fluoropyrrolidin-1-yl)sulfonyl)benzoyl)dispiro[cyclopropane-1,1′-cyclohexane-4′,3″-indolin]-5″- yl)methanesulfonamide] | – | – |
| 22800 | 19 | 0.44 | 11 | 1e-05 | – | CS(=O)(=O)Nc1ccc2c(c1)C1(CCC3(CC3)CC1)CN2C(=O)c1cccc(S(=O)(=O)N2CC3C(C2)C3(F)F)c1 (centres unmarked) [Compound 237, N-(1″-(3-((6,6-difluoro-3-azabicyclo[3.1.0]hexan-3-yl)sulfonyl)benzoyl)dispiro[cyclopropane-1,1′-cyclohexane-4′,3″-indolin]-5″- yl)methanesulfonamide] | – | – |
| – | – | – | 13 | – | 38 | CC1CCC2(CC1)CN(C(=O)c1cccc(S(=O)(=O)NC(C)(C)C)c1)c1ccc(NS(C)(=O)=O)cc12 (centres unmarked) [Compound 140, N-(tert-butyl)-3-(4-methyl-5′-(methylsulfonamido)spiro[cyclohexane-1,3′-indoline]-1′-carbonyl)benzenesulfonamide] | – | – |
| – | – | – | 270 | – | 2200 | CC(C)(C)NS(=O)(=O)c1cccc(C(=O)N2CC3(CCC4(CC4)CC3)c3ccccc32)c1 [Compound 10, N-(tert-butyl)-3-(dispiro[cyclopropane-1,1′-cyclohexane-4′,3″-indoline]-1″- carbonyl)benzenesulfonamide] | – | – |
| – | – | – | 19 | – | 55 | CS(=O)(=O)Nc1ccc2c(c1)C1(CCC3(CC3)CC1)CN2C(=O)c1cccc(S(=O)(=O)N2CCCC2)c1 [Compound 21, N-(1″-(3-(pyrrolidin-1-ylsulfonyl)benzoyl)dispiro[cyclopropane-1,1′-cyclohexane-4′,3″-indolin]-5″- yl)methanesulfonamide] | – | – |
| 4170 | 5.2 | 9.3 | 51 | 3.89e-05 | – | CC(C)(C)NS(=O)(=O)c1cccc(C(=O)N2CC3(CCC(F)(F)CC3)c3cc(NS(C)(=O)=O)ccc32)c1 [Compound 144, N-(tert-butyl)-3-(4,4-difluoro-5′-(methylsulfonamido)spiro[cyclohexane-1,3′-indoline]-1′-carbonyl)benzenesulfonamide] | – | – |
| 5560 | 8.7 | 4 | 79 | 2.22e-05 | – | CCS(=O)(=O)Nc1ccc2c(c1)C1(CCC3(CC3)CC1)CN2C(=O)c1cc(S(=O)(=O)NC(C)(C)C)cs1 [Compound 269, N-(tert-butyl)-5-(5″- (ethylsulfonamido)dispiro[cyclopropane-1,1′-cyclohexane-4′,3″-indoline]-1″- carbonyl)thiophene-3-sulfonamide] | – | – |
| – | – | – | – | – | – | O=C(c1cccc(S(=O)(=O)N2CCC(F)(F)CC2)c1)N1CC2(CCCC2)c2cc(NS(=O)(=O)CCO)ccc21 [Compound 27, N-(1′-(3-((4,4-difluoropiperidin-1-yl)sulfonyl)benzoyl)spiro[cyclopentane-1,3′-indolin]-5′-yl)-2-hydroxyethane-1-sulfonamide] | – | 140 |
| 30600 | 6.5 | 2 | 7.4 | 3.06e-05 | – | CS(=O)(=O)Nc1ccc2c(c1)C1(CCC3(CC3)CC1)CN2C(=O)c1cccc(S(=O)(=O)C2CCCC2)c1 [Compound 155, N-(1″-(3-(cyclopentylsulfonyl)benzoyl)dispiro [cyclopropane-1,1′-cyclohexane-4′,3″- indolin]-5″-yl)methanesulfonamide] | – | – |
| – | – | – | 100 | – | – | CC(C)(C)NS(=O)(=O)c1cccc(C(=O)N2C[C@]3(CC[C@@H](C(F)(F)F)CC3)c3cc(NS(C)(=O)=O)ccc32)c1 [Compound 361b] | – | – |
| – | – | – | 18 | – | – | CS(=O)(=O)Nc1ccc2c(c1)C1(CCC3(CC3)CC1)CN2C(=O)c1csc(S(=O)(=O)N2CC3(CCO3)C2)c1 [Compound 283, N-(1″-(5-((1-oxa-6-azaspiro[3.3]heptan-6-yl)sulfonyl)thiophene-3-carbonyl)dispiro[cyclopropane-1,1′-cyclohexane-4′,3″-indolin]-5″- yl)methanesulfonamide] | – | – |
| – | – | – | 580 | – | – | O=C(c1cccc(S(=O)(=O)N2CCCCC2)c1)N1CC2(CCC3(CC3)CC2)c2ccccc21 [Compound 6, dispiro[cyclopropane-1,1′-cyclohexane-4′,3″-indolin]-1″-yl(3-(piperidin-1-ylsulfonyl)phenyl)methanone] | – | – |

| SMILES | kon (on-rate from binding kinetics assay) [1] [M⁻¹ s⁻¹] | disc. t1/2 (dissociation half-life ln(2)/koff) [1] [h] | Ki [1] [nM] | IC50 (hKIF18A (1-374)) [nM] | koff [1] [s⁻¹] | IC50 (HCC15 cells; [2]) [nM] | koff (off-rate from binding kinetics assay) [1] [s⁻¹] | IC50 (HCC15 cells) [nM] |
| --- | --- | --- | --- | --- | --- | --- | --- | --- |
| CS(=O)(=O)Nc1ccc2c(c1)C1(CCC3(CC3)CC1)CN2C(=O)c1cccc([C@H](O)C2CCCC2)n1 (single isomer, unassigned) [Compound 317b] | 16400 | 2.0 | 5.9 | 10 | – | – | 9.72e-05 | – |
| CS(=O)(=O)Nc1ccc2c(c1)C1(CCC3(CC3)CC1)CN2C(=O)c1cccc([C@@H](O)C2CCCC2)n1 (single isomer, unassigned) [Compound 317a] | 9170 | 2.1 | 10 | 11 | – | – | 9.17e-05 | – |
| CCS(=O)(=O)Nc1ccc2c(c1)[C@]1(CC[C@H](C(F)F)CC1)CN2C(=O)c1cccc(S(=O)(=O)NC(C)(C)C)c1 [Compound 333b] | 3890 | 63 | 0.77 | 33 | – | – | 3.06e-06 | – |
| CS(=O)(=O)Nc1ccc2c(c1)C1(CCC3(CC3)CC1)CN2C(=O)c1cccc([C@H](O)C2CC(F)(F)C2)c1 (single isomer, unassigned) [Compound 351a] | 19400 | 1.7 | 5.8 | 8.7 | – | – | 0.000114 | – |
| CC(C)(C)NS(=O)(=O)c1cccc(C(=O)N2C[C@]3(CC[C@H](C(F)F)CC3)c3cc(NS(C)(=O)=O)ccc32)c1 [Compound 162a] | 8060 | 13 | 1.9 | 15 | – | – | 1.53e-05 | – |
